The values that follow come from patent publication US20100234377A1 (priority 2007, published 2010).

Each structure is given as a SMILES string.

T1 sequence (O60760 whole entry): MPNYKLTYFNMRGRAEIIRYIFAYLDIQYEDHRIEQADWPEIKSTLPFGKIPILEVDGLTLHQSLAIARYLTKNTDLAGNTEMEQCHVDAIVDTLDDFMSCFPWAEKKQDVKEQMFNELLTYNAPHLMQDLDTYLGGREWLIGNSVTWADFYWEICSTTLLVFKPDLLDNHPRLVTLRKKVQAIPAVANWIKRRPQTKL

One assay has as its target T1, human Prostaglandin D Synthase (GST2) (Homo sapiens, UniProt O60760).
T1 construct: the open reading frame of human Prostaglandin D Synthase was amplified from cDNA; made in house; host or cells: E. coli TOP10F'
As to the kind of experiment: Homogeneous biochemical assay of human Prostaglandin D Synthase (GST2) based on its glutathion-S-transferase activity (GSH conjugation to monochlorobimane, fluorescence).
Details: not given
In outline: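 N-His-tagged human PGD synthase from E. coli, assayed via its GST activity: GSH conjugation to monochlorobimane in 50 mM MES/KOH pH 6.1, 0.7 mM GSH, 2 mM MgCl2. Compounds at final picomolar to triple-digit micromolar concentrations.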
Take `O=C(Nc1ccc(F)cc1)N1CCN(C(=O)c2ccccc2CO)CC1` [Compound XXIII, 4-(2-Hydroxymethyl-benzoyl)-piperazine-1-carboxylic acid (4-fluoro-phenyl)-amide]: it took 16.2 µM to reach half-maximal inhibition (IC50).

Staying with this assay, now noted: Table 2; comparative examples; read-out: GST2 inhibition IC50.
On to `O=C(Nc1ccc(F)nc1)c1cccc(C(=O)N2CCN(C(=O)Nc3ccc(F)cc3)CC2)c1` [Compound XVIII, 4-[3-(6-Fluoro-pyridin-3-ylcarbamoyl)-benzoyl]-piperazine-1-carboxylic acid (4-fluoro-phenyl)-amide, reference compound], for which the IC50 was found to be 19.5 µM.

Take `O=C(Nc1ccc(F)cc1)N1CCN(C(=O)c2cccc(NS(=O)(=O)c3ccccc3)c2)CC1` [Compound XX, 4-(3-Benzenesulfonylamino-benzoyl)-piperazine-1-carboxylic acid (4-fluoro-phenyl)-amide, reference compound]: the IC50 is 19.6 µM.

Regarding `NC(=O)c1ccccc1C(=O)N1CCN(C(=O)Nc2ccc(F)cc2)CC1` [Compound XXI, 4-(2-Carbamoyl-benzoyl)-piperazine-1-carboxylic acid (4-fluoro-phenyl)-amide, reference compound], the IC50 turned out to be 16.8 µM.

Staying with this assay, now noted: given beside the compound name in Examples 1 to 167; read-out: Potency Range (GST2 IC50).
As to `O=C(Nc1ccc(NS(=O)(=O)C2CC2)cc1)N1CCN(C(=O)c2cc(F)ccc2F)CC1` [Compound 132, 4-(2,5-Difluoro-benzoyl)-piperazine-1-carboxylic acid (4-cyclopropanesulfonylamino-phenyl)-amide], the IC50 was in the range of 0.101 to 1 µM.

As for `CS(=O)(=O)Nc1ccc(NC(=O)N2CCN(C(=O)c3cc(F)ccc3F)CC2)cc1` [Compound 133, 4-(2,5-Difluoro-benzoyl)-piperazine-1-carboxylic acid (4-methanesulfonylamino-phenyl)-amide], the IC50 lay within 0.101 to 1 µM.

On to `O=C(Nc1ccc([N+](=O)[O-])c(F)c1)N1CCN(C(=O)c2cccc(F)c2)CC1` [Compound 134, 4-(3-Fluoro-benzoyl)-piperazine-1-carboxylic acid (3-fluoro-4-nitro-phenyl)-amide], for which the IC50 is 0.101 to 1 µM.

On to `O=C(Nc1ccc(-c2nnn[nH]2)cc1)N1CCN(C(=O)c2cccc(F)c2)CC1` [Compound 135, 4-(3-Fluoro-benzoyl)-piperazine-1-carboxylic acid [4-(1H-tetrazol-5-yl)-phenyl]-amide], for which the IC50 lay in the range of 0.011 to 0.1 µM.

Consider `Nc1ccc2nc(NC(=O)N3CCN(C(=O)c4cccc(F)c4)CC3)sc2c1` [Compound 136, 4-(3-Fluoro-benzoyl)-piperazine-1-carboxylic acid (6-amino-benzothiazol-2-yl)-amide], for which the IC50 lay in the range of 0.011 to 0.1 µM.

Regarding `O=C(Nc1nc2ccc(NS(=O)(=O)C3CC3)cc2s1)N1CCN(C(=O)c2cccc(F)c2)CC1` [Compound 137, 4-(3-Fluoro-benzoyl)-piperazine-1-carboxylic acid (6-cyclopropanesulfonylamino-benzothiazol-2-yl)-amide], the IC50 was 0.011 to 0.1 µM.

In the case of `O=C(O)c1ccc2nc(NC(=O)N3CCN(C(=O)c4cccc(F)c4)CC3)sc2c1` [Compound 138, 2-{[4-(3-Fluoro-benzoyl)-piperazine-1-carbonyl]-amino}-benzothiazole-6-carboxylic acid], the IC50 lay within 0.011 to 0.1 µM.

Take `O=C(Nc1nc2ccc(C(=O)N3CCOCC3)cc2s1)N1CCN(C(=O)c2cccc(F)c2)CC1` [Compound 139, 4-(3-Fluoro-benzoyl)-piperazine-1-carboxylic acid [6-(morpholine-4-carbonyl)-benzothiazol-2-yl]-amide]: the IC50 lay in the range of 0.011 to 0.1 µM.

Turning to `O=C(Nc1ccc2nc(NC(=O)N3CCN(C(=O)c4cccc(F)c4)CC3)sc2c1)c1ccccn1` [Compound 140, 4-(3-Fluoro-benzoyl)-piperazine-1-carboxylic acid {6-[(pyridine-2-carbonyl)-amino]-benzothiazol-2-yl}-amide], the IC50 lay in the range of 0.011 to 0.1 µM.

Turning to `NC(=O)c1ccc2nc(NC(=O)N3CCN(C(=O)c4cccc(F)c4)CC3)sc2c1` [Compound 141, 2-{[4-(3-Fluoro-benzoyl)-piperazine-1-carbonyl]-amino}-benzothiazole-6-carboxylic acid amide], the IC50 lay in the range of 0.011 to 0.1 µM.

On to `CC(C)c1noc(-c2ccc(NC(=O)N3CCN(C(=O)c4cccc(F)c4)CC3)cc2)n1` [Compound 142, 4-(3-Fluoro-benzoyl)-piperazine-1-carboxylic acid [4-(3-isopropyl-[1,2,4]oxadiazol-5-yl)-phenyl]-amide], for which the IC50 lay in the range of 0.101 to 1 µM.

Turning to `O=C(Nc1ccc(-n2cccn2)c(F)c1)N1CCN(C(=O)c2cccc(F)c2)CC1` [Compound 143], the IC50 lay within 0.101 to 1 µM.

As for `O=C(Nc1ccc(-n2ccnc2)c(F)c1)N1CCN(C(=O)c2cccc(F)c2)CC1` [Compound 144], the IC50 lay in the range of 0.101 to 1 µM.

For the molecule `O=C(Nc1ccc(-n2cncn2)c(F)c1)N1CCN(C(=O)c2cccc(F)c2)CC1` [Compound 145], the IC50 was 0.101 to 1 µM.

As to `O=C(Nc1ccc(N2CCN(c3ccccn3)CC2)c(F)c1)N1CCN(C(=O)c2cccc(F)c2)CC1` [Compound 146, 4-(3-Fluoro-benzoyl)-piperazine-1-carboxylic acid [3-fluoro-4-(4-pyridin-2-yl-piperazin-1-yl)-phenyl]-amide], the IC50 is 0.011 to 0.1 µM.

As for `O=C(Nc1ccc(-c2cccnc2)c(F)c1)N1CCN(C(=O)c2cccc(F)c2)CC1` [Compound 147, 4-(3-Fluoro-benzoyl)-piperazine-1-carboxylic acid (3-fluoro-4-pyridin-3-yl-phenyl)-amide], the IC50 was 0.011 to 0.1 µM.

In the case of `O=C(Nc1ccc(C(F)(F)F)cc1)N1CCN(C(=O)c2cc(F)ccc2F)CC1` [Compound 148, 4-(2,5-Difluoro-benzoyl)-piperazine-1-carboxylic acid (4-trifluoromethyl-phenyl)-amide], the IC50 is 0.101 to 1 µM.

As to `O=C(Nc1ccc(C(F)(F)F)cc1)N1CCN(C(=O)c2cccc(F)c2)CC1` [Compound 149, 4-(3-Fluoro-benzoyl)-piperazine-1-carboxylic acid (4-trifluoromethyl-phenyl)-amide], the IC50 fell in the range of 0.101 to 1 µM.

Consider `O=C(c1cccc(F)c1)N1CCN(C(=S)Nc2ccc(N3CCOCC3)nc2)CC1` [Compound 151, 4-(3-Fluoro-benzoyl)-piperazine-1-carbothioic acid (6-morpholin-4-yl-pyridin-3-yl)-amide], for which the IC50 is 0.011 to 0.1 µM.

For `Cc1ccccc1C(=O)N1CCN(C(=S)Nc2ccc(N3CCOCC3)nc2)CC1` [Compound 152, 4-(2-Methyl-benzoyl)-piperazine-1-carbothioic acid (6-morpholin-4-yl-pyridin-3-yl)-amide], the IC50 lay within 0.011 to 0.1 µM.

As to `O=C(c1cccc([N+](=O)[O-])c1)N1CCN(C(=S)Nc2ccc(N3CCOCC3)nc2)CC1` [Compound 153, 4-(3-Nitro-benzoyl)-piperazine-1-carbothioic acid (6-morpholin-4-yl-pyridin-3-yl)-amide], the IC50 fell in the range of 0.101 to 1 µM.

In the case of `NC(=O)c1cccc(C(=O)N2CCN(C(=O)Nc3ccc(F)cc3)CC2)c1` [Compound 157, 4-(3-Carbamoyl-benzoyl)-piperazine-1-carboxylic acid (4-fluoro-phenyl)-amide], the IC50 is 0.101 to 1 µM.

Consider `NC(=O)c1cccc(NC(=O)N2CCN(C(=O)c3cccc(F)c3)CC2)c1` [Compound 158, 4-(3-Fluoro-benzoyl)-piperazine-1-carboxylic acid (3-carbamoyl-phenyl)-amide], for which the IC50 lay within 0.101 to 1 µM.

As to `O=C(Nc1cccc(-c2ncn[nH]2)c1)N1CCN(C(=O)c2cccc(F)c2)CC1` [Compound 159, 4-(3-Fluoro-benzoyl)-piperazine-1-carboxylic acid [3-(2H-[1,2,4]triazol-3-yl)-phenyl]-amide], the IC50 was 0.101 to 1 µM.

With `NC(=O)c1cc(NC(=O)N2CCN(C(=O)c3cccc(F)c3)CC2)ccc1F` [Compound 160, 4-(3-Fluoro-benzoyl)-piperazine-1-carboxylic acid (3-carbamoyl-4-fluoro-phenyl)-amide], the IC50 lay within 0.101 to 1 µM.

As to `O=C(Nc1ccc(F)c(-c2ncn[nH]2)c1)N1CCN(C(=O)c2cccc(F)c2)CC1` [Compound 161, 4-(3-Fluoro-benzoyl)-piperazine-1-carboxylic acid [4-fluoro-3-(2H-[1,2,4]triazol-3-yl)-phenyl]-amide], the IC50 fell in the range of 0.101 to 1 µM.

`CC(C)c1noc(-c2cccc(NC(=O)N3CCN(C(=O)c4cccc(F)c4)CC3)c2)n1` [Compound 162, 4-(3-Fluoro-benzoyl)-piperazine-1-carboxylic acid [3-(3-isopropyl-[1,2,4]oxadiazol-5-yl)-phenyl]-amide]: the IC50 lay in the range of 0.011 to 0.1 µM.

`CC(C)c1noc(-c2cc(NC(=O)N3CCN(C(=O)c4cccc(F)c4)CC3)ccc2F)n1` [Compound 163, 4-(3-Fluoro-benzoyl)-piperazine-1-carboxylic acid [4-fluoro-3-(3-isopropyl-[1,2,4]oxadiazol-5-yl)-phenyl]-amide]: the IC50 lay in the range of 0.011 to 0.1 µM.

Take `O=C(Nc1ccc(C(F)(F)F)cc1)N1CCN(C(=O)c2ccccc2)CC1` [Compound 164, 4-Benzoyl-piperazine-1-carboxylic acid (4-trifluoromethyl-phenyl)-amide]: the 50% inhibitory concentration (IC50) lay in the range of 0.011 to 0.1 µM.

In the case of `O=C(Nc1ccc(C(F)(F)F)cc1)N1CCN(C(=O)c2cccc(Cl)c2)CC1` [Compound 165, 4-(3-Chloro-benzoyl)-piperazine-1-carboxylic acid (4-trifluoromethyl-phenyl)-amide], the IC50 was in the range of 0.101 to 1 µM.

For the molecule `O=C(Nc1cccc(Nc2ccccc2)c1)N1CCN(C(=O)c2cccc(F)c2)CC1` [Compound 166, 4-(3-Fluoro-benzoyl)-piperazine-1-carboxylic acid (3-phenylamino-phenyl)-amide], the IC50 was 0.101 to 1 µM.

As for `O=C(Nc1cccc(Nc2ccc(F)cc2)c1)N1CCN(C(=O)c2cccc(F)c2)CC1` [Compound 167, 4-(3-Fluoro-benzoyl)-piperazine-1-carboxylic acid [3-(4-fluoro-phenylamino)-phenyl]-amide], the IC50 was 0.101 to 1 µM.
